According to patent publication US20210161976A1, “BACTERIA ENGINEERED TO TREAT DISEASES THAT BENEFIT FROM REDUCED GUT INFLAMMATION AND/OR TIGHTENED GUT MUCOSAL BARRIER” (Synlogic Operating Company, Inc., priority 2016, published 2021):
Like-named read-outs stand apart in the source and are kept apart here.

Key:
[1] = test system: LPS-induced IFNγ secretion; assay: LPS-induction of IFNγ cell-based assay in human PBMCs (ELISA)
Experimental: To assess the activity of the acetate-producing strain SYN2001 in vitro, we employed the LPS-induction of IFNγ cell-based assay. Frozen normal human PBMCs from two independent donors (Lot #'s A4956 and A4924) were plated in triplicate at 1×10^6 cells/mL in 96-well plates in complete media. The cells were then incubated for 15 minutes with media containing either a dilution series of synthetic acetate (40 mM-0.08 Mm), SYN2001 supernatant (30 mM-0.03 mM acetate concentrations based on LC-MS determination) or untreated (negative control). After the 15-minute incubation period, complete media containing LPS was added to the cells to a final concentration of 100 ng/mL and the cells were further incubated overnight under these conditions. The following day supernatants were harvested from each of the different conditions and the IFNγ levels assessed by ELISA. […] We noted that the absolute levels of IFNγ production in the SYN2001 experiments was higher than in the purified acetate experiments, likely due to residual additional LPS in the supernatants from the bacterially-derived acetate. Nonetheless, the IC50s observed for the two acetate sources were very similar.

neutrophils = conditions: cited from earlier work
[2] = test system: PnsrR-GFP reporter construct; assay: Nitric oxide inducible PnsrR-GFP reporter construct, fluorescence in plate reader; format: cell-based, E. coli Nissle; conditions: DETA-NO, two-fold decreased inducer, 96-well, relative florescence units
PXR = target: T1, PXR (Mus musculus, UniProt O54915); conditions: in vivo; cited from earlier work
T1 sequence (O54915 1-431): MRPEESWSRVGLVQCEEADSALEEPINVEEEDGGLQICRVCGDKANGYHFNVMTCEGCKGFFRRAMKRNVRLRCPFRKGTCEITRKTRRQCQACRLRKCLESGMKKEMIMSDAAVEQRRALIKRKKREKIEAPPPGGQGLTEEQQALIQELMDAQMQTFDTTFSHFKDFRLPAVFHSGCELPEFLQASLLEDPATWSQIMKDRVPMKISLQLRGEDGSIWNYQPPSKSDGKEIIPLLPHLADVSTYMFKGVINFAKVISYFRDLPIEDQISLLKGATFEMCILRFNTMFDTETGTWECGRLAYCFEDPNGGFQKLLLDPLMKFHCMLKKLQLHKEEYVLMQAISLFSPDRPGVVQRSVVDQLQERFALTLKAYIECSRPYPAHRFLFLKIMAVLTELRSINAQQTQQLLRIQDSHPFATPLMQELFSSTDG

[3] = test system: gut motility and inflammation; conditions: rats, early phase of acute colitis; cited from earlier work
[4] = test system: HT-29 colon adenocarcinoma cells; assay: Cell viability assay in HT-29 cells (trypan blue, Cellometer K2); conditions: 4 days, data not shown
[5] = test system: Ptet-GFP reporter construct; assay: ATC-inducible Ptet-GFP reporter construct, fluorescence in plate reader; conditions: two-fold decreased inducer, 96-well, relative florescence units
Text: When induced by their cognate inducers, these constructs express GFP, which is detected by monitoring fluorescence in a plate reader at an excitation/emission of 395/509 nm, respectively.
These constructs, when induced by their cognate inducer, lead to high level expression of GFP, which is detected by monitoring fluorescence in a plate reader at an excitation/emission of 395/509 nm, respectively. […] Promoter activity is expressed as relative florescence units.

STAT3 = STAT3 activation in Colo205 cells by IL-22 containing supernatants; format: cell-based; conditions: average of 5 experiments
Experimental: To assess the biological activity of IL-22 produced by SYN3001 (IL-22 secreting strain), titrations of SYN3001 and SYN3000 (DOM mutant, non IL-22 secreting negative control strain) supernatants (starting at 150 ng/mL and titrated in 1:3 dilutions) were added to Colo205 cells and the activation of STAT3 was assessed. […] In contrast, SYN3000 had no effect on STAT3 activity.

IL-22 = target: T2, IL-22 (Homo sapiens, UniProt Q9GZX6); assay: Anti-IL-22 neutralizing antibody inhibition of STAT3 activation in Colo205 cells; format: cell-based; conditions: IC50 of anti-IL-22 neutralizing antibody against STAT3 activation by the listed IL-22 source (3 ng/mL)
T2 construct: IL-22 fused to a cleavable PhoA-secretion tag to mediate Sec-dependent secretion into the periplasm; PhoA secretion tag (21 amino acids) (N, cleaved yes); made in house; filtered culture supernatant
T2 sequence (Q9GZX6 34-179): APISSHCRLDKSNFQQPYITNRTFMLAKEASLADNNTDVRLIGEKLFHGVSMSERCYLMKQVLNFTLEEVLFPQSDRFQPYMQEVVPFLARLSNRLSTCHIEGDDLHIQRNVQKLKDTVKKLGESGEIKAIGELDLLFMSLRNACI
Experimental: To verify that the STAT3 activation elicited by supernatants from SYN3001 was indeed due to IL-22 signaling, Colo205 cells were stimulated with IL-22 supernatants derived from SYN3001 at 3 ng/mL in the presence of increasing concentrations of an anti-IL-22 neutralizing antibody. rLI-22 in the absence of the neutralizing antibody served as a positive control.

CC(=O)O [Acetate (synthetic)]
EC50 ([1]; decrease of LPS-induced IFNγ, human PBMCs donor 1, LPS 100 ng/mL, acetate concentration, read-out: EC50-donor 1): 3120 µM
EC50 ([1]; decrease of LPS-induced IFNγ, human PBMCs donor 2, LPS 100 ng/mL, acetate concentration, read-out: EC50-donor 2): 2180 µM

CC(=O)O [Acetate]
EC50 ([1]; human PBMC, donor 1, 3 experiments in triplicate, LPS 100 ng/mL, read-out: EC50 on LPS-induced IFNγ secretion, Donor 1): 3120 µM
EC50 ([1]; human PBMC, donor 2, 3 experiments in triplicate, LPS 100 ng/mL, read-out: EC50 on LPS-induced IFNγ secretion, Donor 2): 2180 µM
LPS-induced secretion of IFNγ ([1]; primary human PBMC, two donors, FIG. 26G/26H): dose-dependent decrease

Nc1ccccc1C(=O)CC(N)C(=O)O (stereo not shown) [Kynurenine]
apoptosis in neutrophils (neutrophils): induce apoptosis

NCCN(CCN)/[N+]([O-])=N/O [NO, diethylenetriamine-nitric oxide adduct]
induction of GFP expression [2]: able to induce the expression of GFP

O=C(O)CCc1c[nH]c2ccccc12 [indole 3-propionic acid (IPA), indole 3-propionic acid]
PXR ligand (PXR): ligand for PXR

O=C(O)c1cc(=O)c2ccccc2[nH]1 [kynurenic acid]
gut motility and inflammation [3]: decreased gut motility and inflammation

CCCC(=O)O [synthetic butyrate, butyrate]
effect on cell viability [4]: did not have any appreciable effect

anhydrous tetracycline [ATC]
induction of GFP expression [5]: able to induce the expression of GFP

rIL-22
EC50 (STAT3): 1.56 ng/mL
IC50 (IL-22): 3.70 ng/mL
